{"source": "the METLIN SMRT retention time set (Domingo-Almenara et al. 2019)", "experiment": "gradient 5% acetonitrile 3 min, to 50% in 2 min, to 85% in 15 min, held 3 min, 100 µL/min", "conditions": "column: Zorbax Extend-C18 2.1 x 50 mm; eluents: water / acetonitrile, 0.1% formic acid", "outline": "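In both positive and negative ionization mode, a quadrupole time-of-flight mass spectrometer coupled to HPLC analyzed pure standards run in mixtures of ~100 molecules. The Zorbax Extend-C18 column (2.1 × 50 mm, 1.8 μm) was operated at 100 μL/min with water and acetonitrile, each containing 0.1% formic acid. The dead volume was 40 μL and the dwell volume 900 μL. Retention time came from adduct peaks that were computationally picked and individually inspected by hand.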"}
{"smiles": "Cc1cccc(NC(=O)C2CCN(S(=O)(=O)c3cc(C(=O)N4CCCCCC4)cs3)CC2)n1", "values": [{"measurement": "RP-LC retention time", "value": 769, "unit": "s"}]}
{"smiles": "COc1ccc(NC(=O)Cn2c(=O)n(-c3ccc(F)cc3)c3ncccc32)cc1OC", "values": [{"measurement": "RP-LC retention time", "value": 753, "unit": "s"}]}
{"smiles": "O=C(CC1CCN(C(=O)Nc2ccccc2Cl)CC1)N1CCCCC1", "values": [{"measurement": "RP-LC retention time", "value": 806, "unit": "s"}]}
{"smiles": "Cc1cc(NC(=O)C2CCN(C(=O)c3c[nH]c4ccccc34)CC2)no1", "values": [{"measurement": "RP-LC retention time", "value": 639, "unit": "s"}]}
{"smiles": "O=[N+]([O-])c1c(NCCO)cc(Nc2ccc3c(c2)OCCO3)c2nonc12", "values": [{"measurement": "RP-LC retention time", "value": 660, "unit": "s"}]}
{"smiles": "COc1ccc(S(=O)(=O)N2CCC3(CC2)CC(C)(O)CCO3)cc1OC", "note": "(stereo not given)", "values": [{"measurement": "RP-LC retention time", "value": 612, "unit": "s"}]}
{"smiles": "COc1cc(Cl)ccc1C(=O)NCc1c(C)noc1C", "values": [{"measurement": "RP-LC retention time", "value": 810, "unit": "s"}]}
{"smiles": "O=C(C1CCCC1)N1CC(N(Cc2ccccn2)C(=O)Nc2ccccc2)C1", "values": [{"measurement": "RP-LC retention time", "value": 579, "unit": "s"}]}
{"smiles": "O=C(CC1CCN(S(=O)(=O)c2ccc(Cl)s2)CC1)NCCc1c[nH]c2ccccc12", "values": [{"measurement": "RP-LC retention time", "value": 945, "unit": "s"}]}
{"smiles": "Cc1ccc(CNC(=O)C2CCCN(c3nnc4ccccn34)C2)o1", "note": "(stereo not given)", "values": [{"measurement": "RP-LC retention time", "value": 649, "unit": "s"}]}
{"smiles": "COc1cc(Cl)c(C)cc1NC(=O)Cc1nnc(-c2ccc3ncccc3c2)o1", "values": [{"measurement": "RP-LC retention time", "value": 848, "unit": "s"}]}
{"smiles": "Cc1cccc2nc(-c3cccc(Br)c3)c(Nc3ccc4c(c3)OCCO4)n12", "values": [{"measurement": "RP-LC retention time", "value": 739, "unit": "s"}]}
{"smiles": "Cc1ccc(NS(=O)(=O)c2ccc(-c3nnc(C4CCC4)o3)o2)cc1", "values": [{"measurement": "RP-LC retention time", "value": 926, "unit": "s"}]}
{"smiles": "COc1cccc(S(=O)(=O)N2CCc3nc[nH]c3C2)c1", "values": [{"measurement": "RP-LC retention time", "value": 602, "unit": "s"}]}
{"smiles": "CCc1ccc(N2CC(c3nc4ccccc4n3CC(=O)N3CCCC3)CC2=O)cc1", "note": "(stereo not given)", "values": [{"measurement": "RP-LC retention time", "value": 739, "unit": "s"}]}
{"smiles": "CCOC(=O)c1sc(NC(=O)C2CCC2)nc1-c1ccccc1", "values": [{"measurement": "RP-LC retention time", "value": 1010, "unit": "s"}]}
{"smiles": "CCOc1ccccc1CNC(=O)CCc1c(-c2ccc(Br)cc2)nc2ccccn12", "values": [{"measurement": "RP-LC retention time", "value": 744, "unit": "s"}]}
{"smiles": "O=C(CSc1ncnc2ccccc12)NCc1ccccc1", "values": [{"measurement": "RP-LC retention time", "value": 708, "unit": "s"}]}
{"smiles": "Cc1ccc(CNC(=O)C2(C)Cn3nc(C(=O)NCc4cccc(C)c4)cc3C(=O)N2C)cc1", "note": "(stereo not given)", "values": [{"measurement": "RP-LC retention time", "value": 824, "unit": "s"}]}
{"smiles": "O=C(Nc1cccc(C(=O)N2CCN(c3cccc(Cl)c3)CC2)c1)C1=CSCCO1", "values": [{"measurement": "RP-LC retention time", "value": 953, "unit": "s"}]}
{"smiles": "COc1cccc(NS(=O)(=O)c2cn(C(C)C)c3ncccc23)c1", "values": [{"measurement": "RP-LC retention time", "value": 846, "unit": "s"}]}
{"smiles": "COc1ccc(-c2noc(Cn3ccn(-c4cc(C)ccc4C)c(=O)c3=O)n2)cc1", "values": [{"measurement": "RP-LC retention time", "value": 920, "unit": "s"}]}
{"smiles": "O=C(CCn1cnc2cc(-c3noc(/C=C/c4ccccc4Cl)n3)ccc21)N1CCOCC1", "values": [{"measurement": "RP-LC retention time", "value": 794, "unit": "s"}]}
{"smiles": "CC1CN=C2C=C(N3CCN(C(=O)NCCc4ccccc4)CC3)N=CN21", "note": "(stereo not given)", "values": [{"measurement": "RP-LC retention time", "value": 620, "unit": "s"}]}
{"smiles": "CCS(=O)(=O)N1CC(=O)N(c2ccc(F)cc2C)C(C)(C(=O)NC2CCCCC2)C1", "note": "(stereo not given)", "values": [{"measurement": "RP-LC retention time", "value": 919, "unit": "s"}]}
{"smiles": "COc1ccc(-c2noc(C3CCCN3C(=O)c3ccc(C)c(F)c3)n2)cc1", "note": "(stereo not given)", "values": [{"measurement": "RP-LC retention time", "value": 1040, "unit": "s"}]}
{"smiles": "N#Cc1cnc2ccc(F)cc2c1N1CCC(C(=O)Nc2ccc3c(c2)OCCO3)CC1", "values": [{"measurement": "RP-LC retention time", "value": 804, "unit": "s"}]}
{"smiles": "Cc1ccc2[nH]cc(CCNC(=O)c3ccc4nc(C(C)C)oc4c3)c2c1", "values": [{"measurement": "RP-LC retention time", "value": 925, "unit": "s"}]}
{"smiles": "CCCn1cnc2cc(-c3noc(C(C)NS(=O)(=O)c4ccc(C)cc4)n3)ccc21", "note": "(stereo not given)", "values": [{"measurement": "RP-LC retention time", "value": 731, "unit": "s"}]}
{"smiles": "CCOCCCNC(=O)c1nc(Nc2ccc(C)cc2)c2ccccc2n1", "values": [{"measurement": "RP-LC retention time", "value": 746, "unit": "s"}]}
{"smiles": "CCc1ccc2[nH]c3c(c(=O)c2c1)CN(CC(=O)NCc1cccc(Cl)c1)CC3", "values": [{"measurement": "RP-LC retention time", "value": 642, "unit": "s"}]}
{"smiles": "O=c1ccn(-c2ccc(Cl)cc2)nc1-c1nc(-c2ccc(F)cc2)no1", "values": [{"measurement": "RP-LC retention time", "value": 929, "unit": "s"}]}
{"smiles": "Cn1c(=O)n(C)c2cc(N3CCOCC3)c(NC(=O)Cc3ccccc3)cc21", "values": [{"measurement": "RP-LC retention time", "value": 752, "unit": "s"}]}
{"smiles": "COc1ccc(OC)c(NC(=O)N2CCCC(C)(C(=O)NCc3ccccc3C)C2)c1", "note": "(stereo not given)", "values": [{"measurement": "RP-LC retention time", "value": 912, "unit": "s"}]}
{"smiles": "COc1ccc(NC(=O)C2CCCN(c3ncnc4c3nc3n4CCCCC3)C2)cc1Cl", "note": "(stereo not given)", "values": [{"measurement": "RP-LC retention time", "value": 828, "unit": "s"}]}
{"smiles": "CCN(CC)C(=O)c1cnc2snc(C)c2c1N1CCC(C(=O)Nc2ccc(Br)cc2)CC1", "values": [{"measurement": "RP-LC retention time", "value": 990, "unit": "s"}]}
{"smiles": "COc1cc(NC(=O)c2csc(-c3cn(C)c4ncccc34)n2)cc(OC)c1", "values": [{"measurement": "RP-LC retention time", "value": 1010, "unit": "s"}]}
{"smiles": "CCOC(=O)COC(=O)c1cn(-c2cccc(F)c2)c(=O)c2ccccc12", "values": [{"measurement": "RP-LC retention time", "value": 1020, "unit": "s"}]}
{"smiles": "CCN1CCCn2cc(S(=O)(=O)N3CCN(c4cccc(Cl)c4)CC3)cc2C1=O", "values": [{"measurement": "RP-LC retention time", "value": 894, "unit": "s"}]}
{"smiles": "COc1ccccc1CNC(=O)Cn1nc2cc(-c3ccccc3)nc(C)n2c1=O", "values": [{"measurement": "RP-LC retention time", "value": 705, "unit": "s"}]}
{"smiles": "COC(=O)Nc1ccc(S(=O)(=O)N2CCCC(C(=O)O)C2)cc1", "note": "(stereo not given)", "values": [{"measurement": "RP-LC retention time", "value": 640, "unit": "s"}]}
{"smiles": "O=C(Cc1csc2nc(-c3ccccc3)cn12)N1CCN(c2ccc(Cl)cc2)CC1", "values": [{"measurement": "RP-LC retention time", "value": 915, "unit": "s"}]}
{"smiles": "COc1ccc(-c2ncccc2CNS(=O)(=O)c2c(C)cccc2Cl)cc1", "values": [{"measurement": "RP-LC retention time", "value": 719, "unit": "s"}]}
{"smiles": "Cc1cccc(-c2noc(Cn3nc(-c4ccccc4)ccc3=O)n2)c1", "values": [{"measurement": "RP-LC retention time", "value": 1060, "unit": "s"}]}
{"smiles": "CCOC(=O)c1sc(NC(=O)Cn2nc3c(cc2=O)CCCCC3)nc1C", "values": [{"measurement": "RP-LC retention time", "value": 853, "unit": "s"}]}
{"smiles": "Cc1ccc(NC(=O)Cn2c(N3CCOCC3)nc(C)cc2=O)c(C)c1", "values": [{"measurement": "RP-LC retention time", "value": 658, "unit": "s"}]}
{"smiles": "CCc1ccc(-c2cc3c(=O)n(Cc4noc(CN5CCN(C)CC5)n4)ccn3n2)cc1", "values": [{"measurement": "RP-LC retention time", "value": 647, "unit": "s"}]}
{"smiles": "O=C(C1=CN(c2ccc3c(c2)OCCO3)c2ccccc2S1(=O)=O)N1CCCCC1", "values": [{"measurement": "RP-LC retention time", "value": 830, "unit": "s"}]}
{"smiles": "Cc1c(Cl)ccc2c(=O)c3c([nH]c12)CCN(CC(=O)Nc1ccc2c(c1)OCCO2)C3", "values": [{"measurement": "RP-LC retention time", "value": 646, "unit": "s"}]}
{"smiles": "COc1ccc(CCS(=O)(=O)NCC2CCN(C(=O)c3cccn(C)c3=O)CC2)cc1", "values": [{"measurement": "RP-LC retention time", "value": 638, "unit": "s"}]}
{"smiles": "COCCN1C(=O)c2ccccc2C(C(=O)NCc2ccccc2)C12CCCCC2", "note": "(stereo not given)", "values": [{"measurement": "RP-LC retention time", "value": 856, "unit": "s"}]}
{"smiles": "O=C(NCc1cccc(C(F)(F)F)c1)c1csc(C(=O)NC2CCCC2)n1", "values": [{"measurement": "RP-LC retention time", "value": 1000, "unit": "s"}]}
{"smiles": "COc1cc2c(cc1CNC(=O)C(=O)c1c[nH]c3ccccc13)OCCCO2", "values": [{"measurement": "RP-LC retention time", "value": 1320, "unit": "s"}]}
{"smiles": "Cc1ccccc1CNC(=O)c1sc(-c2cn(C)c3ncccc23)nc1C", "values": [{"measurement": "RP-LC retention time", "value": 928, "unit": "s"}]}
{"smiles": "O=C(NCC1CCN(C(=O)COc2ccccc2)CC1)c1ccc(F)c(F)c1", "values": [{"measurement": "RP-LC retention time", "value": 758, "unit": "s"}]}
{"smiles": "Cc1cc(N2CCOCC2)nc(N2CCN(S(=O)(=O)c3ccc(Br)cc3)CC2)n1", "values": [{"measurement": "RP-LC retention time", "value": 718, "unit": "s"}]}
{"smiles": "COc1ccc(-c2cc(N3CCN(C(=O)Nc4ccc(OC)c(OC)c4)CC3)ncn2)cc1", "values": [{"measurement": "RP-LC retention time", "value": 620, "unit": "s"}]}
{"smiles": "COC(=O)c1ccc(NC(=O)N(C)Cc2cc(=O)[nH]c3ccccc23)cc1", "values": [{"measurement": "RP-LC retention time", "value": 694, "unit": "s"}]}
{"smiles": "O=c1c2ccccc2c(-c2nc(-c3cccnc3)no2)cn1-c1ccc(F)cc1", "values": [{"measurement": "RP-LC retention time", "value": 1050, "unit": "s"}]}
{"smiles": "Cc1cc(-c2nnc(-c3ccco3)o2)c(C)n1CC(=O)NCc1ccc(F)cc1Cl", "values": [{"measurement": "RP-LC retention time", "value": 881, "unit": "s"}]}
{"smiles": "CCN(CC)CCCNC(=O)c1cc2n(n1)CC(C)(C(=O)NCc1ccccc1)N(C)C2=O", "note": "(stereo not given)", "values": [{"measurement": "RP-LC retention time", "value": 581, "unit": "s"}]}
{"smiles": "COC(=O)N1CCc2ccccc2C1C(=O)NCCCn1ccnc1", "note": "(stereo not given)", "values": [{"measurement": "RP-LC retention time", "value": 556, "unit": "s"}]}
{"smiles": "Cc1noc(C)c1CC(=O)N1CCOc2ccc(N(C)C)cc2C1", "values": [{"measurement": "RP-LC retention time", "value": 584, "unit": "s"}]}
{"smiles": "Cc1ccc(C)c(-c2csc(Nc3ccccn3)n2)c1", "values": [{"measurement": "RP-LC retention time", "value": 821, "unit": "s"}]}
{"smiles": "COc1ccc(C2Cn3cnc(C(=O)N4CCC(C(=O)NC5CCC(C)CC5)CC4)c3CO2)cc1", "note": "(stereo not given)", "values": [{"measurement": "RP-LC retention time", "value": 821, "unit": "s"}]}
